{
  "source": "paper PMC6333775",
  "about": "“Structure of tRNA splicing enzyme Tpt1 illuminates the mechanism of RNA 2′-PO4 recognition and ADP-ribosylation” (Nature Communications, 2019)",
  "key": {"CthTpt1 [1]": {"molecular_target": "T1, CthTpt1 (Acetivibrio thermocellus, UniProt A3DJX6)", "T1 construct": "gene kptA; 182-aa polypeptide, His6-tagged, recombinant from E. coli; Leu3-Glu182 modelled; one protomer in the asymmetric unit", "test": "X-ray crystal structure, […] Å", "format": "binding", "conditions": "acquired during production in E. coli, pH 6.0"}, "RslTpt1": {"molecular_target": "T2, RslTpt1 (Runella slithyformis, UniProt A0A7U3ZK32, H99A/T101A)", "T2 construct": "gene kptA; His6-tagged, recombinant from E. coli, Ni-NTA and gel filtration", "T2 sequence (A0A7U3ZK32 entry or part of it H99A/T101A)": "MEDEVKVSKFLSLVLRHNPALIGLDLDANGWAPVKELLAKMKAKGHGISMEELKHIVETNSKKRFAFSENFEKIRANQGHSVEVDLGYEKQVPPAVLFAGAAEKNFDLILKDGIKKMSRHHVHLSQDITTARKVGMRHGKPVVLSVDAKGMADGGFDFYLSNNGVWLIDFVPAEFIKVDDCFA", "test": "RNA […]'-phosphotransferase assay, […]-labelled 6-mer RNA, urea-PAGE", "format": "biochemical", "conditions": "1 mM NAD+, 0.2 µM 2'-PO4 6-mer RNA, 0.01 µM enzyme, 30 min, pH 7.5, 37 °C"}, "CthTpt1 [2]": {"molecular_target": "T3, CthTpt1 (Acetivibrio thermocellus, UniProt A3DJX6, C46S)", "T3 construct": "gene kptA; 182-aa polypeptide, His6-tagged, recombinant from E. coli; Leu3-Glu182 modelled; one protomer in the asymmetric unit", "T3 sequence (A3DJX6 whole entry C46S)": "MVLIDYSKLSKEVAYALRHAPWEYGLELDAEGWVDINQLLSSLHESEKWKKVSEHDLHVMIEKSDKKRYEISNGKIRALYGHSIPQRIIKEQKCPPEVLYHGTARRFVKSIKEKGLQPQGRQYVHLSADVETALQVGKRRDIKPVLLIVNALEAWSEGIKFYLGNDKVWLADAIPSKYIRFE", "test": "X-ray crystal structure, […] Å", "format": "binding", "conditions": "NAD+ site; CoA absent from RNA lobe; acquired during production in E. coli; pH 8.5"}},
  "data": [
    {"molecule": "CC(C)(COP(=O)(O)OP(=O)(O)OC[C@H]1O[C@@H](n2cnc3c(N)ncnc32)[C@H](O)[C@@H]1OP(=O)(O)O)[C@@H](O)C(=O)NCCC(=O)NCCS", "note": "[coenzyme A]", "values": [
      {"measurement": "X-ray crystal structure, 1.4 Å", "setting": "CthTpt1 [1]; covalent (disulfide to Cys46), pAp moiety in RNA site (N-terminal lobe), ADP-ribose-1″-phosphate also bound", "value": "The molecule associated with the N-terminal lobe was convincingly modeled as coenzyme A (CoA)"}
    ]},
    {"molecule": "NC(=O)c1ccc[n+]([C@@H]2O[C@H](COP(=O)([O-])OP(=O)(O)OC[C@H]3O[C@@H](n4cnc5c(N)ncnc54)[C@H](O)[C@@H]3O)[C@@H](O)[C@H]2O)c1", "note": "[NAD^+]", "values": [
      {"measurement": "% of input RNA converted to 2′-OH product", "setting": "RslTpt1", "value": 4, "unit": "%"}
    ]},
    {"molecule": "Nc1ncnc2c1ncn2[C@@H]1O[C@H](COP(=O)(O)OP(=O)(O)OC[C@H]2O[C@H](OP(=O)(O)O)[C@H](O)[C@@H]2O)[C@@H](O)[C@H]1O", "note": "[ADP-ribose-1″-phosphate]", "values": [
      {"measurement": "X-ray crystal structure, 1.55 Å", "setting": "CthTpt1 [2]", "value": "ADP-ribose-1″-phosphate was bound to the NAD^+ lobe"},
      {"measurement": "X-ray crystal structure, 1.4 Å", "setting": "CthTpt1 [1]; NAD+ site (C-terminal lobe), CoA also bound", "value": "The molecule associated with the C-terminal lobe was unambiguously modeled as ADP-ribose-1″-phosphate"}
    ]}
  ]
}
